Read-outs that look alike come from different tables or passages of the source.
Experiments:
[1] = in vivo; for Rat I.P. identification TOX: ip; for Rat P.O. identification TOX: po
[2] = system: psychomotor seizures induced by 6 Hz 44 mA corneal stimulus; experiment: 6 Hz 44 mA mouse test; format: in vivo; settings: for Mouse I.P identification 44 mA / Mouse P.O. identification 44 mA: 0.5 and 2 h, default doses 30, 100, 300 mg/kg; for ED50: Mus musculus
MES-induced seizures [3] = experiment: Maximal electroshock; format: in vivo; settings: for Mouse I.P identification MES / Mouse P.O. identification MES: 0.5 and 2 h, default doses 30, 100, 300 mg/kg; for ED50: Mus musculus
[4] = system: spontaneous bursting of a mEC-HC slice; experiment: In vitro post-KA rat spontaneous bursting mEC-HC slice; format: cell-based
[5] = system: 60 Hz corneal kindled seizures; experiment: animal or person; settings: Mus musculus, ip
[6] = system: 60 Hz corneal kindled seizures; settings: for average seizure score (SEM): corneal kindled mouse
MES-induced seizures [7] = experiment: Maximal electroshock; format: in vivo
Minimal motor impairment = settings: for TD50: rat, in vivo
[8] = for Mouse I.P identification TOX / Mouse P.O. identification TOX: 0.5 and 2 h, default doses 30, 100, 300 mg/kg
in vivo [9] = settings: mouse
[10] = Open field activity monitor of rats; format: in vivo; settings: rat; i.p.; 45 and 60 mg/kg; 10 min; vs vehicle
in vivo [11] = settings: rat
[12] = read-out: Mouse CKM (I.P.) Quant (ED50), i.p.
[13] = ip, read-out: Mouse I.P. quantification 44 mA (ED50)
[14] = po, read-out: Mouse P.O. quantification 44 mA (ED50)
[15] = ip, Rat I.P. quantification TOX (TD50)
[16] = ip, read-out: Mouse I.P. quantification MES (ED50)
[17] = po, read-out: Mouse P.O. quantification MES (ED50)
[18] = read-out: Mouse CKM (I.P.) Quant (ED50)
[19] = po, Rat P.O. quantification TOX (TD50)
[20] = 30 mg/kg (n = 2 mice) and 40 mg/kg (n = 1 mouse)

Row | SMILES | Rat I.P. identification TOX [1] | Rat P.O. identification TOX [1] | Mouse I.P identification 44 mA ([2]; i.p., 6 Hz 44 mA) | Mouse P.O. identification 44 mA ([2]; 6 Hz 44 mA) | Mouse I.P identification MES (MES-induced seizures [3]; i.p.) | Mouse P.O. identification MES (MES-induced seizures [3]) | ED50 [5, 12] | Mouse CKM (I.P.) ID ([6]; i.p.) | Rat I.P. identification MES (MES-induced seizures [7]; i.p.) | Rat P.O. identification MES (MES-induced seizures [7]) | ED50 [2, 13] | ED50 [2, 14] | Rat I.P. identification TOX (Minimal motor impairment; i.p.) | Rat P.O. identification TOX (Minimal motor impairment) | ED50 (MES-induced seizures [3]; [16]) | ED50 (MES-induced seizures [3]; [17]) | Mouse I.P identification TOX ([8]; i.p.) | Mouse P.O. identification TOX [8] | TD50 (in vivo [9]; ip) | TD50 (in vivo [9]; po) | other results
1 | CC(=O)Nc1ccc(O)cc1 [Acetaminophen, acetaminophen] | − | − | − | − | − | − | > 450 mg/kg | + | − | − |  |  |  |  |  |  |  |  |  |  | amplitude of spontaneous bursts ([4]; 3000 μM): small, but significant increase; acute effects on spontaneous bursting in vitro ([4]; concentrations up to 1000 μM): did not identify any acute effects; protected in the corneal kindled mouse ([6]; 20 mg/kg, i.p., 30 min after administration): 1/8; protected in the corneal kindled mouse ([6]; 80 mg/kg, i.p., 30 min after administration): 0/8; protected in the corneal kindled mouse ([6]; 120 mg/kg, i.p., 30 min after administration): 1/8; protected in the corneal kindled mouse ([6]; 150 mg/kg, i.p., 30 min after administration): 2/8; protected in the corneal kindled mouse ([6]; 175 mg/kg, i.p., 30 min after administration): 0/12; death of corneal kindled mice ([6]; 450 mg/kg, 24-hours later): 1/4; protected in the corneal kindled mouse ([6]; 450 mg/kg, i.p., 30 min after administration): 3/4
2 | CN1C(=O)CC(=O)N(c2ccccc2)c2cc(Cl)ccc21 [Clobazam, clobazam] |  |  | + | + | + | + |  | + | − | − | 4.5 mg/kg | 6.99 mg/kg | − | − | 16.5 mg/kg | 29.9 mg/kg | + | − | 26.1 mg/kg | 197 mg/kg | TD50 (Minimal motor impairment; [15]): 15.7 mg/kg; ED50 [5, 18]: 2.53 mg/kg; protective index (PI), corneal kindled mouse ([6]; calculated based on the i.p. TD50): 10.3
3 | Cc1ccsc1C(=CCCN1CCC[C@@H](C(=O)O)C1)c1sccc1C [Tiagabine, tiagabine] | + | − | + | + | − | − |  |  | − | − | 1.03 mg/kg | 1.87 mg/kg |  |  |  |  |  |  | 5.84 mg/kg | 33.2 mg/kg | 
4 | OC[C@H]1O[C@@H](n2cnc3c(NC4CCCC4)ncnc32)[C@H](O)[C@@H]1O [N6-Cyclopentyladenosine, N^6-cyclopentyladenosine] |  |  | + | + | + | + |  | − | + | + | 0.19 mg/kg | 1.36 mg/kg | + | + | 1.01 mg/kg | 4.43 mg/kg | + | + | 0.94 mg/kg | 6.94 mg/kg | TD50 (Minimal motor impairment; [19]): > 10 mg/kg; average seizure score (SEM) ([6]; 0.1 mg/kg): 4.75 ± 0.25; average seizure score (SEM) ([6]; 2 mg/kg): 4.88 ± 0.13
5 | CCCC(CCC)C(=O)O [Valproic acid, valproic acid] | − | − | + | − |  | − | 94 mg/kg | + | − | − | 239 mg/kg | > 300 mg/kg |  |  | > 60 mg/kg | > 300 mg/kg |  |  | > 300 mg/kg | < 300 mg/kg | Mouse CKM (I.P.) Quant (ED50) ([6]; i.p.): 94.02 mg/kg; protective index (PI), corneal kindled mouse ([6]; male, CF-1, mouse, in vivo, ip): > 94
6 | Clc1cccc(N2CCNCC2)c1 [m-CPP, meta-chlorophenylpiperazine] |  |  | − | − | − | − |  | − | + | + |  |  | − | − |  |  | + | − |  |  | Mouse I.P. quantification 44 mA (ED50) ([2]; i.p., 6 Hz 44 mA, at time of peak effect): >55 mg/kg; Rat I.P. quantification TOX (TD50) (Minimal motor impairment; i.p.): <10 mg/kg; Mouse I.P. quantification MES (ED50) (MES-induced seizures [3]; i.p., at time of peak effect): >60 mg/kg; protective index (PI), i.p., MES test (MES-induced seizures [3]; mouse, i.p.): less than 1.0; mice protected in the MES test (MES-induced seizures [3]; screening, at 10 and 30 mg/kg): one out of four; MMI in corneal kindled mice [8, 20]: significant MMI in all animals tested; mice with significant MMI on the rotarod assay ([8]; corneal kindled mice, 20 mg/kg, i.p., 15 min): 3/8; Mouse I.P. quantification TOX (TD50) ([8]; i.p., rotorod): 52.6 mg/kg; total distance travelled in the open field [10]: significant, dose-dependent reduction; protected in the corneal kindled mouse ([6]; 20 mg/kg, i.p., 15 min prior to testing): 0/8; protection in the corneal kindled mouse [6, 20]: lack of protection; adverse side effects in corneal kindled mice ([6]; at the highest doses tested): severe adverse side effects, including splaying, tremors, and mortality following seizure; Rat I.P. quantification MES (ED50) (MES-induced seizures [7]; i.p.): 37.1 mg/kg
7 | CCOC(=O)Nc1ccc(NCc2ccc(F)cc2)cc1N [Retigabine, retigabine] |  |  | + | + | + | + |  | + | + | + | 32.5 mg/kg | 75.1 mg/kg | + | + | 25.7 mg/kg | 57 mg/kg |  | + | 129 mg/kg | > 500 mg/kg | TD50 (Minimal motor impairment; [15]): 23.4 mg/kg; TD50 (Minimal motor impairment; [19]): 64.4 mg/kg; ED50 [5, 18]: 13.7 mg/kg
8 | NC(=O)N1c2ccccc2C=Cc2ccccc21 [Carbamazepine, carbamazepine] | + | + | + | + | + | + | 6.42 mg/kg | + | + | + | 31.4 mg/kg | 63.7 mg/kg |  |  | 8.38 mg/kg | 11.3 mg/kg |  |  |  | 95.4 mg/kg | TD50 (in vivo [11]; ip): 22.9 mg/kg; TD50 (in vivo [11]; po): > 500 mg/kg; protective index (PI), corneal kindled mouse ([6]; male, CF-1, mouse, in vivo, ip): 7.1
9 | CC[C@@H](C(N)=O)N1CCCC1=O [Levetiracetam, levetiracetam] | − | − | + | + | − | − |  | + | − | − | > 1500 mg/kg | > 500 mg/kg |  |  |  |  |  |  | > 1500 mg/kg | > 500 mg/kg | 

Reference: paper PMC7895462 (Neurochemical research, 2017)
